What all share (assay type): biochemical
One assay deals with T1, CaMKKβ (Homo sapiens, UniProt Q96RR4).
T1 construct: gene CAMKK2
Description: kinase panel profiling at […], recombinant enzyme (MRC Dundee).

Another assay has as its target T2, Tak1 (Homo sapiens, UniProt O43318).
T2 construct: gene MAP3K7
T2 sequence (O43318 1-606): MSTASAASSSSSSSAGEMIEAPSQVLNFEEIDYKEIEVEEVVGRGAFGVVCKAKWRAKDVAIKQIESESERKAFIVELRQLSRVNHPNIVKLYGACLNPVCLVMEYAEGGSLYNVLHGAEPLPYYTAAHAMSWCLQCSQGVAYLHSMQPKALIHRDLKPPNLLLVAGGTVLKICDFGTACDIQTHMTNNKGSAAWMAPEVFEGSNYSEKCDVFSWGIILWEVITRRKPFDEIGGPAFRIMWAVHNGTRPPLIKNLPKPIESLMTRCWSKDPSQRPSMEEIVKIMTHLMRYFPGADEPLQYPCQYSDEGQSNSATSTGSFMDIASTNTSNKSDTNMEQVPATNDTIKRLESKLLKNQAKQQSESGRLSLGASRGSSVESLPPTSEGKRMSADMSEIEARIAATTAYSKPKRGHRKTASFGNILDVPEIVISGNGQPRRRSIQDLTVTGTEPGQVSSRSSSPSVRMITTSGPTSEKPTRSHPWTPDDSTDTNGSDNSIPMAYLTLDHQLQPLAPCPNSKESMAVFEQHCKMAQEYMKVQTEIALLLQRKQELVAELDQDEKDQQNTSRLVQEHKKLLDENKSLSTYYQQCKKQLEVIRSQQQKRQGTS
T2 sequence (Q15750 1-504 partner): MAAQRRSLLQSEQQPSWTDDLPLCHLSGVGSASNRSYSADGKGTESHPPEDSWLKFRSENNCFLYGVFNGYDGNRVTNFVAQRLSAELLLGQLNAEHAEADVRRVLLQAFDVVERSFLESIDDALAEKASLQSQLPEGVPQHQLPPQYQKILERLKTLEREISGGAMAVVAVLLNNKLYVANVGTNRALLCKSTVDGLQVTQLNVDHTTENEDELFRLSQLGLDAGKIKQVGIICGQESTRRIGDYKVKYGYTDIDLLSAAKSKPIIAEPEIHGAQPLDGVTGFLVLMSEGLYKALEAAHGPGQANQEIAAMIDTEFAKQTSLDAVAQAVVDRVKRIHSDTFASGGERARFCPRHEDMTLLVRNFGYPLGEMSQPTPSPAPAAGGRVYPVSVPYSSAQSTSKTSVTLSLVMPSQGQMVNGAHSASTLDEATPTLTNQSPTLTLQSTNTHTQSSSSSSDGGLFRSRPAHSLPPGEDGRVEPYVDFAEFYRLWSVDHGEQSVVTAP
Description: in vitro kinase assay, recombinant enzyme (MRC Dundee).

For a further assay, the target named is T3, Flt1/V-EGFR1 (Homo sapiens, UniProt P17948).
T3 sequence (P17948 781-1338 limits assumed): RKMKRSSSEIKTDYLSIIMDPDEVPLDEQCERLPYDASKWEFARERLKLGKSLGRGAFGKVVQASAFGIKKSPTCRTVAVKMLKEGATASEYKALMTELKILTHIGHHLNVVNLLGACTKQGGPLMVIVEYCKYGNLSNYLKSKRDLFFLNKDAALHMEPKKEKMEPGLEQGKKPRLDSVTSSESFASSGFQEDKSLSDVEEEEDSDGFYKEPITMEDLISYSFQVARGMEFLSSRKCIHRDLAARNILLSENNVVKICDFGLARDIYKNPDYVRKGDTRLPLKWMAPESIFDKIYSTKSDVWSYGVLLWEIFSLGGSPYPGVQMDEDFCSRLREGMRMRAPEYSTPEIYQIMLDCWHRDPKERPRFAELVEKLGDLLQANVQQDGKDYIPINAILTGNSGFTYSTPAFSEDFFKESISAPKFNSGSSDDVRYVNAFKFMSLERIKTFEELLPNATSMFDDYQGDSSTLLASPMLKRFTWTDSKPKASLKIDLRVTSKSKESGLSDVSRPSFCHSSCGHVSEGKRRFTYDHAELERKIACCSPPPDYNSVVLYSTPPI
Described as above.

A further assay concerns the target T4, Chk1 (Homo sapiens, UniProt O14757).
T4 construct: gene CHEK1
T4 sequence (O14757 1-476): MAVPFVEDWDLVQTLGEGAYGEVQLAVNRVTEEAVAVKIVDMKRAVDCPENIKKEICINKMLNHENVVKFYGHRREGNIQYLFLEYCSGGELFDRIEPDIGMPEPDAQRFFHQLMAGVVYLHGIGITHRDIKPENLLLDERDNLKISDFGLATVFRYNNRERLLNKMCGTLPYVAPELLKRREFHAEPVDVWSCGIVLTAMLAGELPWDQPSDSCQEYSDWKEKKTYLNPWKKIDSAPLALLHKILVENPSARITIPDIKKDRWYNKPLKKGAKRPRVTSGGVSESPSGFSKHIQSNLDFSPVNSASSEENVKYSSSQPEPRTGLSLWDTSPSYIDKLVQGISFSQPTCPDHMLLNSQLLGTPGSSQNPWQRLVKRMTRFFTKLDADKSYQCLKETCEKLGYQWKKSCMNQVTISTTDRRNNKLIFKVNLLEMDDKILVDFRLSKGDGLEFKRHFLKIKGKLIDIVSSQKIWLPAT
The assay is described as above.

In another assay the target is T5, aurora B kinase (Homo sapiens, UniProt Q96GD4).
T5 construct: gene AURKB
Described as above.

Another assay concerns the target T6, Chk2 (Homo sapiens, UniProt O96017).
T6 construct: gene CHEK2
Described as above.

A further assay deals with phosphorylase kinase. The assay is described as above.
The next assay concerns the target Sik2 (Homo sapiens, UniProt Q9H0K1). Described as above.
For a further assay, the target named is T7, ARK5/Nuak1 (Homo sapiens, UniProt O60285).
T7 sequence (O60285 1-661): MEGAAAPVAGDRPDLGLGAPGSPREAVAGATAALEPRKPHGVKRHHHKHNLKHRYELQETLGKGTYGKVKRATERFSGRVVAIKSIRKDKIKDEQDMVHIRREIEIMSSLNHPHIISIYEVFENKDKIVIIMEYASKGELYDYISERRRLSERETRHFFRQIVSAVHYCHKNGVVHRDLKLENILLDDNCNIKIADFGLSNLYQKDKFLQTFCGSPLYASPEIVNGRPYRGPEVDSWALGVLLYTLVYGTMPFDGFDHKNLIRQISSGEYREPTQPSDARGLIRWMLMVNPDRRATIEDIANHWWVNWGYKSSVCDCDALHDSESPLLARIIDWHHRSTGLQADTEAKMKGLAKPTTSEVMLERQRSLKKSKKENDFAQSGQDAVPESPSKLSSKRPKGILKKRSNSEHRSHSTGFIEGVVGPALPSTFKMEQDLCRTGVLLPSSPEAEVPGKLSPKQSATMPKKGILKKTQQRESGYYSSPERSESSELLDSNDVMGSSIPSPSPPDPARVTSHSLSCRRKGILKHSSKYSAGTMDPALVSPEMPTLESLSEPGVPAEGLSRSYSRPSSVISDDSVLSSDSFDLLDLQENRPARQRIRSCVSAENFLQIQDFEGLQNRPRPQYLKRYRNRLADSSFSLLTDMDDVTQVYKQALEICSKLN
The description is as above.

The next assay deals with Melk (Homo sapiens, UniProt Q14680). Described as above.

Structures can show the parent of a compound that is named as a salt.

Melk, sequence (Q14680 whole entry): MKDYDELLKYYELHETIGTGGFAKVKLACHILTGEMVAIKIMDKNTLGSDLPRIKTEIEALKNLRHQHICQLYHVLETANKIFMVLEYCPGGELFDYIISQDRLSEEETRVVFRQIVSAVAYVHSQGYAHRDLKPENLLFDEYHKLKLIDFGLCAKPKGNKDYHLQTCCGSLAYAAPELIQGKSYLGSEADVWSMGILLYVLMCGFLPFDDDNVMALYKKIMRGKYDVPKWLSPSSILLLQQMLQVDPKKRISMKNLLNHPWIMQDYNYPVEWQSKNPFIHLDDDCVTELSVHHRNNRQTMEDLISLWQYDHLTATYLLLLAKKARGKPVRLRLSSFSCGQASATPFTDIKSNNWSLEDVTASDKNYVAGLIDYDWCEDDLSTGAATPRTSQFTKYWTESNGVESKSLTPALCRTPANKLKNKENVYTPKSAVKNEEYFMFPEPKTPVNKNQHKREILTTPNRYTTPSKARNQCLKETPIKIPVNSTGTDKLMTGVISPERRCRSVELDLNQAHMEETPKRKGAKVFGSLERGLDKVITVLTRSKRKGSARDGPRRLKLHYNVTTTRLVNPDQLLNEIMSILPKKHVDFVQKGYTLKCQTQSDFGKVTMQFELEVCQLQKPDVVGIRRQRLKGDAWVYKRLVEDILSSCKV
T1 sequence (Q96RR4 2-588): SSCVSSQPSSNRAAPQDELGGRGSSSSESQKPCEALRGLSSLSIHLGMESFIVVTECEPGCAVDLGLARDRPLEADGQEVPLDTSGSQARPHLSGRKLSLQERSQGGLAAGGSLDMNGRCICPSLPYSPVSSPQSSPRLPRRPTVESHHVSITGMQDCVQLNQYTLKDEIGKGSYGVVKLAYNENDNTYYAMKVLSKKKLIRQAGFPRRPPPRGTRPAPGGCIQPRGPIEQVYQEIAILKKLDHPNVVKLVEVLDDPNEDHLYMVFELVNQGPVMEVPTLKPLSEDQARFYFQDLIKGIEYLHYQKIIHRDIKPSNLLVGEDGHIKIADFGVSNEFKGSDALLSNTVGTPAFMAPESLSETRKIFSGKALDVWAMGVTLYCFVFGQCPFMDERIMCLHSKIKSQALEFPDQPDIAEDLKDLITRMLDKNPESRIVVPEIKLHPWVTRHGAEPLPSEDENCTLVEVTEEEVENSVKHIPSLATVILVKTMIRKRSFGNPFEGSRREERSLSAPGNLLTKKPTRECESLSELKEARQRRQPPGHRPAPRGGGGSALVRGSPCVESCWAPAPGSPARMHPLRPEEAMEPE
T5 sequence (Q96GD4 whole entry): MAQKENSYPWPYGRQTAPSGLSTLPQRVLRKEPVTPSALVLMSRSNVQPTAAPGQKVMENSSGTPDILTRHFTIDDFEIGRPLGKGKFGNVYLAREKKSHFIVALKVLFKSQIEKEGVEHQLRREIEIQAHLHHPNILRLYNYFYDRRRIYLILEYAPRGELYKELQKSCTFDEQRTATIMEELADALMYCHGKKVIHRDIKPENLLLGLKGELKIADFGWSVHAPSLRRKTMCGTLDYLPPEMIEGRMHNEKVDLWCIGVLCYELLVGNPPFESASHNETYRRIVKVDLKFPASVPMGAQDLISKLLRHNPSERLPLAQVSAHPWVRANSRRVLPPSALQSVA
T6 sequence (O96017 whole entry): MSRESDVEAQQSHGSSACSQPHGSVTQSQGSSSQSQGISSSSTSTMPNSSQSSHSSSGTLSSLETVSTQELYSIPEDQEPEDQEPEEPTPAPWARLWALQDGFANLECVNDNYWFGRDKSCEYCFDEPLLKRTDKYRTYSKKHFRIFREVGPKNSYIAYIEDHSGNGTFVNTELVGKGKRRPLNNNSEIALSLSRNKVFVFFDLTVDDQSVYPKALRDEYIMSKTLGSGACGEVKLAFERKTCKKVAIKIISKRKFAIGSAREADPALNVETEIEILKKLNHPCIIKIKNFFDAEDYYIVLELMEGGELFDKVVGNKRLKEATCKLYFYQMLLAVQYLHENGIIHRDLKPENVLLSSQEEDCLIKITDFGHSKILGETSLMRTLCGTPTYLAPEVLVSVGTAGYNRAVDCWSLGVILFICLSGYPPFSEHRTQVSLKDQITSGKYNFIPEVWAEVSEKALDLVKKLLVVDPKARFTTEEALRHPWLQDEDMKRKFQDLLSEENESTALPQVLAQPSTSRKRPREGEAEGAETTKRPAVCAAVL
Sik2, sequence (Q9H0K1 whole entry): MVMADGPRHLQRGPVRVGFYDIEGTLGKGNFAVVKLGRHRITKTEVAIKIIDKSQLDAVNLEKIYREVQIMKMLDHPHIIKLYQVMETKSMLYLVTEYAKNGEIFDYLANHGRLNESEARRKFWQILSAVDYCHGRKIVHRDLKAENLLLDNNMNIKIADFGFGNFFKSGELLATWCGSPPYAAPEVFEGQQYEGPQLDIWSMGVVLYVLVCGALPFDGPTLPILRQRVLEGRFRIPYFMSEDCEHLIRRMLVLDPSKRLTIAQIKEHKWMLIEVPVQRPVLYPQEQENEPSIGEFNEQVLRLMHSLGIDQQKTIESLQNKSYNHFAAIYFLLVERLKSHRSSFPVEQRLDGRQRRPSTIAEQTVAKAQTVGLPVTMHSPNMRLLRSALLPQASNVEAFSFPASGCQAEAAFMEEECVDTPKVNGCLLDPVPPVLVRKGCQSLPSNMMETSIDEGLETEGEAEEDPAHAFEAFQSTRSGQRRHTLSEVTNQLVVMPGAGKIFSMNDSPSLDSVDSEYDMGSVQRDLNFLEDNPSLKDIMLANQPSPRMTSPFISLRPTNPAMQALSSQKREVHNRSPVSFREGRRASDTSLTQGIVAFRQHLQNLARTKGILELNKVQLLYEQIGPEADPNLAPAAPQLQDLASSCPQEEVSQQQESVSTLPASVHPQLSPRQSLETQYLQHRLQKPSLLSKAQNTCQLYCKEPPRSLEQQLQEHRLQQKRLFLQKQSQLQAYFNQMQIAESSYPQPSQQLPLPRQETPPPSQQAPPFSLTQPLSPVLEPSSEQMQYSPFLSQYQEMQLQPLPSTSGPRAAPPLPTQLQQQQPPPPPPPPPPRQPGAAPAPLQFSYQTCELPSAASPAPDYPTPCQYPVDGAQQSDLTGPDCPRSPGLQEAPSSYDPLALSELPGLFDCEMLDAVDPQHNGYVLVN

In general, IC50 refers to the point on the concentration scale where inhibition reaches its midpoint. Turning to `Cc1c[nH]c(=O)c2c1[nH]c1ccc3cc(OCCN4CCCCC4)ccc3c12` [C5M, 3-(2-(Piperidin-1-yl)ethoxy)-8-methyl-7H, 10H-benzo[e]pyrido(4,3-b)indol-11-one maleate], the “kinase panel profiling at 250 nM, recombinant enzyme (MRC Dundee)” value on CaMKKβ is “Among the fifteen best targets, we noted the presence of several AMPK-related kinases”. In addition, the IC50 on Tak1 is 6 nM; on Flt1/V-EGFR1, 37 nM; on Chk1 it was 13.6 nM; on aurora B kinase, 118 nM; at Chk2, 13.6 nM; at phosphorylase kinase, 18.5 nM. The results for the IC50 at Sik2, at ARK5/Nuak1 and at Melk were 12.4 nM, 4.8 nM and 13.3 nM, respectively.
